Laboratory results from PubChem BioAssay (NCI).
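Following 48 hours of exposure in 96-well plates, responses at five concentrations were used to interpolate endpoints linearly. Definition used: TGI = concentration required for complete inhibition of growth.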

Assays:
Experiment in all cases: NCI tumour cell line growth inhibition, 48 h
[1] = system: DMS 114 small cell lung
[2] = system: HOP-18 NSCLC
[3] = system: KM20L2 colon
[4] = system: LXFL 529 NSCLC
[5] = system: M19-MEL melanoma
[6] = system: XF 498 CNS
[7] = system: DMS 273 small cell lung
[8] = system: MDA-N
[9] = system: P388 leukemia
[10] = system: P388/ADR leukemia
[11] = system: SN12K1 renal
[12] = system: RXF-631 renal

| SMILES | TGI [1] [µM] | TGI [2] [µM] | TGI [3] [µM] | TGI [4] [µM] | TGI [5] [µM] | TGI [6] [µM] | TGI [7] [µM] | TGI [8] [µM] | TGI [9] [µM] | TGI [10] [µM] | TGI [11] [µM] | TGI [12] [µM] |
| --- | --- | --- | --- | --- | --- | --- | --- | --- | --- | --- | --- | --- |
| C=C1CCc2occ(C)c2C2C1C1=C(CC(C)C1=O)C1OC12C (centres undefined) | > 100 | 6.77 | > 100 | > 100 | > 100 | > 100 | – | – | – | – | – | – |
| Cc1ccc(Sc2ccc(C)cc2[N+](=O)[O-])c([N+](=O)[O-])c1 | > 100 | > 100 | > 100 | > 100 | > 100 | > 100 | > 100 | – | – | – | – | – |
| OCC1OC(n2cnc3c(=S)nc[nH]c32)C(O)C1O (centres undefined) | 2490 | > 2500 | > 2500 | – | > 2500 | > 1400 | > 2310 | > 2500 | > 2500 | > 2500 | > 2500 | – |
| COC(=O)C1=C(C(=O)OC)SC(=C(N=Nc2ccccc2)c2ccccc2)S1 | – | > 100 | > 100 | > 100 | > 100 | – | > 100 | – | – | – | – | > 100 |
| CCN(CC)CC(C(=O)Nc1c(C)cccc1C)/C(C)=N\NC(=O)c1ccncc1 (centres undefined) | > 100 | > 100 | – | > 100 | > 100 | > 100 | > 100 | – | – | – | – | > 100 |
| CC(=O)Nc1ccc(/C=C/C(=O)c2sc(-c3nc(C)c(C(=O)/C=C/c4ccc(NC(C)=O)cc4)s3)nc2C)cc1 | > 100 | – | > 100 | > 100 | > 100 | > 100 | > 100 | – | – | – | – | > 100 |
| CC#CC1C(OC(=O)c2ccccc2)CCCC1(CI)N=[N+]=[N-] (centres undefined) | 99.2 | > 100 | > 100 | > 100 | > 100 | 78.7 | > 100 | – | – | – | – | – |
| C=CCC(OCCOCC)c1cc(OCCOCC)ccc1OC (centres undefined) | – | – | – | > 100 | > 100 | > 100 | > 100 | – | – | – | – | – |
